For assay [1], the target named is T1, human histamine H3 receptor (Homo sapiens, UniProt Q9Y5N1).
T1 construct: expressed in transfected cells; host or cells: HEK293
Particulars: cited from earlier work; for Ki: read-out: hH3R Ki Mean ± SD [CI 95%], [3H]Nα-methylhistamine, HEK293 cells stably expressing human H3R.

Another assay concerns the target T2, BuChE from equine serum (Equus caballus, UniProt P81908).
T2 construct: AChE was obtained from electric eel and BuChE from equine serum; purchased Sigma Aldrich; host or cells: equine serum (natural source)
Put plainly: eqBuChE inhibition, Ellman's method. Particulars: BuChE from equine serum; read-out: eqBuChE IC50 Mean ± SEM. It counts as biochemical. The protocol: The inhibitory activities of the tested compounds against cholinesterases were evaluated by Ellman’s method. AChE was obtained from electric eel and BuChE from equine serum. […] Inhibitory activities of the tested compounds against cholinesterases were measured using a spectrophotometric method modified for 96-well microplates as described recently.
First, all compounds were screened at the concentration of 10 μM. […] Then, the percent of inhibition of tested enzymes for each compound was calculated. […] Each concentration was measured in triplicate. All calculations were made using nonlinear regression GraphPad Prism 5 (GraphPad Software, San Diego, CA, USA).

In assay [2] the target is T1, human histamine H3 receptor. In words: hH3R radioligand binding assay ([3H]Nα-methylhistamine). The protocol:
Affinity to human histamine H3 receptor stably expressed in HEK293 cells was evaluated in a radioligand binding assay with N^α-methylhistamine according to the previous procedure. […] The bound radioligand was separated from the free radioligand by filtration through GF/B filters (pretreated with 0.3% (m/v) polyethylenimine) using Inotech cell harvester (Dottikin, Switzerland). Unbound radioligand was removed by three washing steps with ice-cold water. The radioactivity was determined in a liquid scintillation counter (Perkin Elmer Trilux Betacounter, Germany). Scintillation data corrected for non-specific binding were analyzed using GraphPad Prism (V6.01, San Diego, CA, USA) software. Ki values were calculated from IC50 values (from at least three experiments, performed in duplicates) according to the Cheng–Prusoff equation [29].

For the next assay, the target named is T3, human MAO B (Homo sapiens, UniProt P27338).
T3 construct: purchased Sigma Aldrich M7441
T3 sequence (P27338 1-520): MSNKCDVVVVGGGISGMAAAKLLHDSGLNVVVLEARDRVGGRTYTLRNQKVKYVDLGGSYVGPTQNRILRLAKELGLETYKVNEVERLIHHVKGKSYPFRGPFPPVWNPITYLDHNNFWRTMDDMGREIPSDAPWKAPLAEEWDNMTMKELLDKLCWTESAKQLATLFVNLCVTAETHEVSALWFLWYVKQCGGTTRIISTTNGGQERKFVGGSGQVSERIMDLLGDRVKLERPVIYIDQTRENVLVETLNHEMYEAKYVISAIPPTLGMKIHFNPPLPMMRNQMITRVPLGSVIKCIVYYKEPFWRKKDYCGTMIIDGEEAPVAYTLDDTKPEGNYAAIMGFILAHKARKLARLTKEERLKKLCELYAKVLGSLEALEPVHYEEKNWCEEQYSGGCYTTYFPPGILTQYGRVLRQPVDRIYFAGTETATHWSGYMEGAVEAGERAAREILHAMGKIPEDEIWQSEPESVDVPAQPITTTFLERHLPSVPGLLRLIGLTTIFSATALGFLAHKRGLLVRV
Put plainly: fluorometric Monoamine Oxidase assay. The format is biochemical. Particulars: at 1 μM; read-out: hMAO B %Inh. (converted). The protocol:
Inhibition of human MAO B (hMAO B) was evaluated using a fluorometric Monoamine Oxidase assay as we described previously.
Inhibition of hMAO B was evaluated using fluorometric Monoamine Oxidase assay as described by Łażewska et al.. Recombinant MAO B was purchased from Sigma Aldrich (M7441). […] The assay was carried out in 96-well plate. Tested compounds dissolved in DMSO (1 μM) were added to wells that contained 98 µL of enzyme dilution (1 µg/well) in phosphate buffer (50 mM, pH 7.4). […] An enzymatic reaction started following addition of para-tyramine solution (200 μM). […] Each experiment was performed in duplicate.

A further assay has as its target T4, AChE from electric eel (Electrophorus electricus, UniProt O42275).
T4 construct: AChE was obtained from electric eel and BuChE from equine serum; purchased Sigma Aldrich; host or cells: electric eel (natural source)
In words: eeAChE inhibition, Ellman's method. It counts as biochemical. Particulars: for inhibition at 10 µM: read-out: eeAChE % Inh.; for IC50: AChE from electric eel, read-out: eeAChE IC50 Mean ± SEM. The protocol:
The inhibitory activities of the tested compounds against cholinesterases were evaluated by Ellman’s method. AChE was obtained from electric eel and BuChE from equine serum. Donepezil and rivastigmine were used as reference compounds. […]. Inhibitory activities of the tested compounds against cholinesterases were measured using a spectrophotometric method modified for 96-well microplates as described recently.
[…]. First, all compounds were screened at the concentration of 10 μM. The changes in absorbance were measured at 412 nm, using a microplate reader (EnSpire Multimode; PerkinElmer, Waltham, MA, USA). Then, the percent of inhibition of tested enzymes for each compound was calculated. […] Each concentration was measured in triplicate. All calculations were made using nonlinear regression GraphPad Prism 5 (GraphPad Software, San Diego, CA, USA).
In general terms: In Ellman's method for cholinesterases, released thiocholine reacts with DTNB.

For assay [3], the system named is mouse model of scopolamine-induced memory impairments. Put plainly: step-through Passive Avoidance Task. The format is in vivo. Particulars: mice; for latency times, acquisition trial: i.p. The protocol: This procedure was created for studying short-term memory as well as long-term memory. The paradigm requires the rodents to behave contrary to their innate preference for dark areas and for avoiding bright ones.
The experiments were carried out on adult male Albino Swiss mice (CD-1, 18–25 g). […] Experimental groups consisted of 6–12 animals, all the animals were used only once and they were killed by cervical dislocation immediately after the assay. Behavioral measures were scored by trained observers, which were blind to experimental conditions. Treatment of laboratory animals in the present study was in full accordance with the respective Polish regulations.
Control animals (negative control) were given an appropriate amount of vehicle (1% aqueous solution of Tween 80; i.p.) 30 min before the test.
The task was performed according to the method described previously. Briefly, the test was conducted in the apparatus with two compartments (LE872, Bioseb, France). The illuminated white compartment (20 cm × 21 cm × 20 cm, 1000 lx) was separated by an automated sliding gate with the smaller dark compartment (7.3 cm × 7.5 cm × 14 cm, 10 lx) equipped with an electric grid floor. For acquisition session, mice were first placed individually in the white compartment and after 30 s the gate to the smaller compartment was opened. Immediately after entering into the dark compartment, the gate was closed and the mouse was punished by an unavoidable electric foot shock (0.8 mA for 2 s). […] Next day (24 h later), the pretested animals were placed again into the bright compartment. […] The latency time to cross through the gate between the compartments was measured.

Assay [4] has as its target human butyrylcholineserase. Particulars: read-out: hBuChE IC50; cited from earlier work.
[5] abbreviates: [3H]Nα-methylhistamine, HEK293 cells stably expressing human H3R, read-out: hH3R Ki Mean ± SD [CI 95%].

Molecules are shown by their SMILES. Counter-ions that a name gives are not always drawn. Like-named read-outs stand apart in the source and are kept apart here.

T2 sequence (P81908 whole entry): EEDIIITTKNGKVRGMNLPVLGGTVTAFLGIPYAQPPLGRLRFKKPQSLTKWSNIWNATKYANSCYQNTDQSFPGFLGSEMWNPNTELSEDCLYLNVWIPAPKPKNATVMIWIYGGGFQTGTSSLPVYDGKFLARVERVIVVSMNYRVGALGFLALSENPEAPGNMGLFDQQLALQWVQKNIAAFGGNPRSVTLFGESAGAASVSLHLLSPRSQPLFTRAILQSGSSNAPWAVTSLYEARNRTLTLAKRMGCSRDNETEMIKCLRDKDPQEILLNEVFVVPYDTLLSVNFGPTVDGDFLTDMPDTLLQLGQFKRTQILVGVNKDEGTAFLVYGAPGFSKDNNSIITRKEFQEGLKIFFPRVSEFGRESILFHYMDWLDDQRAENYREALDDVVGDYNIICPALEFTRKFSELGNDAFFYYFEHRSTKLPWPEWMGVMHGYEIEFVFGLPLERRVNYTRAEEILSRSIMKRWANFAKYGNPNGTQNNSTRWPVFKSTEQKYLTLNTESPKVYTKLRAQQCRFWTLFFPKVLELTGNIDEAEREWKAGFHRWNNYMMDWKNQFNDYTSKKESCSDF
T1 sequence (Q9Y5N1 whole entry): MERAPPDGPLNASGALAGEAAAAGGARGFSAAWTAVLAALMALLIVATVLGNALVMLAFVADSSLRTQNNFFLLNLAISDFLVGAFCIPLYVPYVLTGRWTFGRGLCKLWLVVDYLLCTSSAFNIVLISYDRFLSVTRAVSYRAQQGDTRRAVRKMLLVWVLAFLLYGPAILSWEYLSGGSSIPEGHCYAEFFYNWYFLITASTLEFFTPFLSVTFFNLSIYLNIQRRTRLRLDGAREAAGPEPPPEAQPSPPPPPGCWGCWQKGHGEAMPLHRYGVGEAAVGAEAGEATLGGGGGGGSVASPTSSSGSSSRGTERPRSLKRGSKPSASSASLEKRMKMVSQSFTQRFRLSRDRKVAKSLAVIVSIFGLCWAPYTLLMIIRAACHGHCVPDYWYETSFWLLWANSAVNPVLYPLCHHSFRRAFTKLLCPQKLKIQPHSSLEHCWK
T4 sequence (O42275 24-633): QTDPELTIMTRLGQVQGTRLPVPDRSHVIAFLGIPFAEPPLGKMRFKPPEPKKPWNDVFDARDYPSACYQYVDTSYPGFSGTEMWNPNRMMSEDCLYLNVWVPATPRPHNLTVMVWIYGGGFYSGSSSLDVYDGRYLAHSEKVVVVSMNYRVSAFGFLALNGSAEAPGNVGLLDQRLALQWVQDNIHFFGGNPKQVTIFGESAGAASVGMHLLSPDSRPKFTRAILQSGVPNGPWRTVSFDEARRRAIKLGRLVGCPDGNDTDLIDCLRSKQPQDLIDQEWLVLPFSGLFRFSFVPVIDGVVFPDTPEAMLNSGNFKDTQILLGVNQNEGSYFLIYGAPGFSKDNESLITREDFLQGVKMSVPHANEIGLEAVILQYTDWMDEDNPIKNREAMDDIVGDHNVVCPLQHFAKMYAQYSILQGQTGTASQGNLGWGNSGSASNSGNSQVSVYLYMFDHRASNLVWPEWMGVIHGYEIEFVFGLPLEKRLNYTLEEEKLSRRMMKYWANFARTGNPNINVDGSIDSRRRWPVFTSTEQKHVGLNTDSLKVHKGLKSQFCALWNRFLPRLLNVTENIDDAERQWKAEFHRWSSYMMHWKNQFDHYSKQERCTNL

As for `CNCCc1cnc[nH]1` [[^3H]N^α-methylhistamine, reference compound], in assay [1] (hH3R stably expressed in HEK293 cells, read-out: KD of radioligand at hH3R), the dissociation constant (Kd) (commonly the free concentration of one partner at which half of the binding sites on the other are occupied at equilibrium, for simple one-to-one binding) is 3.08 nM.
Regarding `CC1CCN(CCCCCCOc2ccccc2-c2ccccc2)CC1` [Compound 18, 1-(6-([1,1′-Biphenyl]-2-yloxy)hexyl)-4-methylpiperidine Hydrogen Oxalate], on BuChE from equine serum, the concentration for half-maximal inhibition (IC50) (in general, the concentration needed to halve the response being measured) is 1480 ± 40 nM. In assay [2], the inhibition constant Ki (commonly the dissociation constant of the complex between target and ligand, obtained from inhibition or displacement) stood at 561 nM. For the same compound, at human MAO B, the inhibition at 1 µM is 24%. Moreover, the inhibition at 10 µM on AChE from electric eel was determined as 20%.
Turning to `CC1CCCN(CCCCCCOc2ccccc2-c2ccccc2)C1` (centres unmarked) [Compound 15, 1-(6-([1,1′-Biphenyl]-2-yloxy)hexyl)-3-methylpiperidine Hydrogen Oxalate], at BuChE from equine serum, the IC50 was 2100 ± 60 nM. In assay [2], this compound returned an inhibition constant (Ki) of 23 nM. Besides, the inhibition at 1 µM at human MAO B was 16%. Further, the inhibition at 10 µM on AChE from electric eel worked out at 24%.
As to `c1ccc(-c2cccc(OCCCCCCN3CCCCC3)c2)cc1` [Compound 9], in assay [1], the Ki was 149 ± 108 nM. Also, on BuChE from equine serum, the half-maximal inhibitory concentration (IC50) amounted to 1780 ± 80 nM. In addition, at human MAO B, the inhibition at 1 µM was 16%. Also, the inhibition at 10 µM at AChE from electric eel stood at 35%.
Regarding `CCN(C)C(=O)Oc1cccc([C@H](C)N(C)C)c1` [Rivastigmine, rivastigmine, reference compound], the “latency time, retention trial” value came out at 84.6 ± 20.1 s in assay [3] (1.0 mg/kg i.p. before scopolamine 1 mg/kg) and 98.7 ± 17.9 s in assay [3] (2.5 mg/kg i.p. before scopolamine 1 mg/kg). Also, the “latency times, acquisition trial” value in assay [3] was “neither scopolamine, nor 19 nor rivastigmine significantly affected latency times”. In addition, the IC50 in assay [4] is 370 nM.
Consider `c1ccc(-c2ccc(OCCCCCCN3CCCCC3)cc2)cc1` [Compound 8], for which the IC50 on BuChE from equine serum amounted to 1630 ± 50 nM. At human MAO B, the inhibition at 1 µM was 36%. In addition, on AChE from electric eel, the inhibition at 10 µM amounted to 48%.
`c1ccc(-c2cccc(OCCCCCN3CCCCCC3)c2)cc1` [Compound 20]: the half-maximal inhibitory concentration (IC50) at BuChE from equine serum amounted to 470 ± 10 nM. Further, the inhibition at 1 µM at human MAO B was 14%. For the same compound, at AChE from electric eel, the inhibition at 10 µM turned out to be 26%.
Take `CC1CCCN(CCCCCOc2ccc(-c3ccccc3)cc2)C1` (centres unmarked) [Compound 11, 1-(5-([1,1′-Biphenyl]-4-yloxy)pentyl)-3-methylpiperidine Hydrogen Oxalate]: the half-inhibitory concentration (IC50) on BuChE from equine serum stood at 910 ± 10 nM. Moreover, the inhibition constant (Ki) in assay [2] (setting [5]) was 27.3 ± 15.1 nM. On human MAO B, the inhibition at 1 µM is 28%. At AChE from electric eel, the inhibition at 10 µM was 45%.
In the case of `c1ccc(-c2ccc(OCCCCCN3CCCCC3)cc2)cc1` [Compound 6], on BuChE from equine serum, the IC50 came to 2160 ± 30 nM. Besides, on human MAO B, the inhibition at 1 µM is 50%. In addition, the inhibition at 10 µM at AChE from electric eel turned out to be 24%.
In the case of `c1ccc(-c2cccc(OCCCCCCN3CCCCCC3)c2)cc1` [Compound 21], in assay [1], the Ki is 19 ± 5.5 nM. The values for the concentration for half-maximal inhibition (IC50) at BuChE from equine serum and at AChE from electric eel were 870 nM and 3860 ± 80 nM, respectively. Besides, the inhibition at 1 µM on human MAO B was 43%. On AChE from electric eel, the inhibition at 10 µM is > 50%.
Regarding `CC1CCN(CCCCCOc2cccc(-c3ccccc3)c2)CC1` [Compound 16], the IC50 on BuChE from equine serum turned out to be 1460 ± 30 nM. Besides, the inhibition at 1 µM on human MAO B was 7%. Moreover, the inhibition at 10 µM on AChE from electric eel came out at 41%.
As to `CC1CCCN(CCCCCCOc2cccc(-c3ccccc3)c2)C1` (centres unmarked) [Compound 14, 1-(6-([1,1′-Biphenyl]-3-yloxy)hexyl)-3-methylpiperidine Hydrogen Oxalate], the IC50 on BuChE from equine serum was determined as 1520 ± 40 nM. In addition, the Ki in assay [2] worked out at 27 nM. Moreover, on human MAO B, the inhibition at 1 µM is 35%. On AChE from electric eel, the IC50 came out at 4710 ± 130 nM and the inhibition at 10 µM is > 50%.
As for `CC1CCCN(CCCCCCOc2ccc(-c3ccccc3)cc2)C1` (centres unmarked) [Compound 13, 1-(6-([1,1′-Biphenyl]-4-yloxy)hexyl)-3-methylpiperidine Hydrogen Oxalate], on BuChE from equine serum, the IC50 was found to be 950 nM. In assay [2] (setting [5]), the Ki is 146 ± 65.3 nM. Also, the inhibition at 1 µM on human MAO B was 20%. Also, at AChE from electric eel, the IC50 turned out to be 5020 ± 90 nM and the inhibition at 10 µM was > 50%.
As for `Clc1ccc(CCCOCCCN2CCCCC2)cc1` [Pitolisant, reference compound], on human MAO B, the inhibition at 1 µM was 2%.
For `CC1CCCN(CCCCCOc2cccc(-c3ccccc3)c2)C1` (centres unmarked) [Compound 12, 1-(5-([1,1′-Biphenyl]-3-yloxy)pentyl)-3-methylpiperidine Hydrogen Oxalate], the half-maximal inhibitory concentration (IC50) at BuChE from equine serum came to 680 ± 10 nM. In assay [2], this compound showed an inhibition constant Ki of 45 ± 13.4 nM. The inhibition at 1 µM at human MAO B is 5%. Also, the inhibition at 10 µM on AChE from electric eel amounted to 27%.
On to `c1ccc(-c2cccc(OCCCCCN3CCCCC3)c2)cc1` [Compound 7], for which, on BuChE from equine serum, the IC50 worked out at 1290 ± 20 nM. In addition, the inhibition at 1 µM at human MAO B was 11%. Also, the inhibition at 10 µM at AChE from electric eel is 24%.
On to `c1ccc(-c2ccccc2OCCCCCCN2CCCCCC2)cc1` [Compound 22, 1-(6-([1,1′-Biphenyl]-2-yloxy)hexyl)azepane Hydrogen Oxalate], for which the IC50 on BuChE from equine serum came out at 690 ± 50 nM. Moreover, affinity in assay [2] was put at a Ki of 528 nM. At human MAO B, the inhibition at 1 µM is 17%. Besides, the inhibition at 10 µM on AChE from electric eel came to 30%.
Regarding `c1ccc(-c2ccccc2OCCCCCCN2CCCCC2)cc1` [Compound 10, 1-(6-[1,1′-Biphenyl]-2-yloxy)hexyl)piperidine Hydrogen Oxalate], the IC50 on BuChE from equine serum came to 1280 ± 20 nM. This compound registered an inhibition constant (Ki) in assay [2] of 221 nM. Moreover, at human MAO B, the inhibition at 1 µM is 40%. In addition, on AChE from electric eel, the inhibition at 10 µM worked out at 8%.
As to `CN1[C@@H]2C[C@@H](OC(=O)[C@H](CO)c3ccccc3)C[C@H]1[C@@H]1O[C@@H]12` [Scopolamine, scopolamine, reference compound], the “latency times, acquisition trial” value in assay [3] was “neither scopolamine, nor 19 nor rivastigmine significantly affected latency times”.
